≈ marks a conversion by molar mass, not a printed value.
Assays:
Mus musculus [1] = assay: Tlast in CB17/ICR-Prkdc SCID mouse at 10 mg/kg, po; format: ADME, organism-based; parameters: dose 10 mg/kg, route oral; settings: in vivo
[2] = Drug uptake in tumor of SCID mouse xenografted with PTEN-deficient human PC3 cells at 300 mg/kg, po BID measured after 24 hrs; format: ADME, organism-based, Neoplasm, PC-3; parameters: dose 300 mg/kg, route oral; settings: read-out: Drug uptake
Mus musculus [3] = assay: Toxicity in SCID mouse bearing PTEN-deficient human PC3 cells at 300 mg/kg, po BID for 9 days; format: organism-based, PC-3; parameters: dose 300 mg/kg, route oral; settings: in vivo, 216 h
[4] = Oral bioavailability in CB17/ICR-Prkdc SCID mouse at 10 mg/kg; format: ADME, organism-based; settings: in vivo
[5] = AUC (0 to 24 hrs) in CB17/ICR-Prkdc SCID mouse at 6 mg/kg, iv; format: ADME, organism-based; parameters: time < 24 hr, dose 6 mg/kg, route intravenous; settings: plasma
[6] = Plasma concentration in SCID mouse xenografted with PTEN-deficient human PC3 cells at 300 mg/kg, po BID measured after 6 hrs; format: ADME, organism-based, PC-3; parameters: dose 300 mg/kg, route oral
[7] = biological target: T1, Phosphatidylinositol 4,5-bisphosphate 3-kinase catalytic subunit gamma isoform (Homo sapiens, UniProt P48736); assay: Inhibition of human PI3Kgamma-mediated Akt phosphorylation at Ser473 residue expressed in mouse RAW264.7 cells after 0.5 to 2 hrs by Western blot analysis; format: cell-based
T1 sequence (P48736 whole entry, canonical isoform): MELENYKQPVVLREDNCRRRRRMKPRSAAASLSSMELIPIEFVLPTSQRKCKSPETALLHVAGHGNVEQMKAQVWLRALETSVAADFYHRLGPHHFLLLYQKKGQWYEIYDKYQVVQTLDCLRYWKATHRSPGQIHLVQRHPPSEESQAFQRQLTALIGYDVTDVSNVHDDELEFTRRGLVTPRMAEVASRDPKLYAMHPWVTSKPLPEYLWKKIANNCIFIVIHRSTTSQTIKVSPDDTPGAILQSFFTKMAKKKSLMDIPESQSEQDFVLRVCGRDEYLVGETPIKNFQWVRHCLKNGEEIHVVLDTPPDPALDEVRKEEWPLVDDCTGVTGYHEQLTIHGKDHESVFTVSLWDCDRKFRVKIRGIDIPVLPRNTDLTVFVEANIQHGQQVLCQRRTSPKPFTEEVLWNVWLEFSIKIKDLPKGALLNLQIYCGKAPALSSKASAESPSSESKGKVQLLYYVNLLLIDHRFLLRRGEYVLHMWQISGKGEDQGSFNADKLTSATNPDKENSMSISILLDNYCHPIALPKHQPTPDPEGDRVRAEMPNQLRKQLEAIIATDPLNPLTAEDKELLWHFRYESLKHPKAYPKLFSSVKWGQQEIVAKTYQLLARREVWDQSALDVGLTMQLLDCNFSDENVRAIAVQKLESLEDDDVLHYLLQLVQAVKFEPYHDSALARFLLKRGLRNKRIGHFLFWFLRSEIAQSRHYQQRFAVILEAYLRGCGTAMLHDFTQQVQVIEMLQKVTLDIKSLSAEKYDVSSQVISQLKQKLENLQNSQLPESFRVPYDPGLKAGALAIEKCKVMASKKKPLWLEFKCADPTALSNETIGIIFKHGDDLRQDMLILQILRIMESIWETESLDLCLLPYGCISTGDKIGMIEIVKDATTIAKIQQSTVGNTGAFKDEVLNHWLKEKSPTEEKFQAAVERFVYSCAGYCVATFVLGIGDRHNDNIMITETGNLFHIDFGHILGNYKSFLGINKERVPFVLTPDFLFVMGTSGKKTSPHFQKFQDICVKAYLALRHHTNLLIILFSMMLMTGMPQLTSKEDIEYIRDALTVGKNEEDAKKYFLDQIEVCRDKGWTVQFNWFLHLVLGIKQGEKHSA

[8] = AUC (0 to Tlast) in CB17/ICR-Prkdc SCID mouse at 6 mg/kg, iv; format: ADME, organism-based; parameters: dose 6 mg/kg, route intravenous; settings: plasma
[9] = Plasma concentration in SCID mouse xenografted with PTEN-deficient human PC3 cells at 300 mg/kg, po BID measured after 3 hrs; format: ADME, organism-based, PC-3; parameters: dose 300 mg/kg, route oral
[10] = Tmax in CB17/ICR-Prkdc SCID mouse at 10 mg/kg, po; format: ADME, organism-based; parameters: dose 10 mg/kg, route oral; settings: in vivo
PC-3 = assay: Antitumor activity against PTEN-deficient human PC3 cells xenografted in SCID mouse assessed as tumor growth inhibition at 300 mg/kg, po BID for 9 days measured on day 32 relative to control; format: functional
[11] = biological target: T1, Phosphatidylinositol 4,5-bisphosphate 3-kinase catalytic subunit gamma isoform; assay: Inhibition of N-terminus poly-His tagged human PI3Kgamma expressed in baculovirus infected insect sf9 cells using PI(4,5)P2 as substrate preincubated with compound for 15 mins measured after 10 mins by HTRF assay
[12] = AUC (0 to 24 hrs) in CB17/ICR-Prkdc SCID mouse at 10 mg/kg, po; format: ADME, organism-based; parameters: time < 24 hr, dose 10 mg/kg, route oral; settings: plasma
[13] = biological target: T2, Phosphatidylinositol 4,5-bisphosphate 3-kinase catalytic subunit alpha isoform (Homo sapiens, UniProt P42336); assay: Inhibition of N-terminus poly-His tagged human PI3Kalpha expressed in baculovirus infected insect sf9 cells coexpressing p85alpha using PI(4,5)P2 as substrate preincubated with compound for 15 mins measured after 10 mins by HTRF assay
T2 sequence (P42336 whole entry, canonical isoform): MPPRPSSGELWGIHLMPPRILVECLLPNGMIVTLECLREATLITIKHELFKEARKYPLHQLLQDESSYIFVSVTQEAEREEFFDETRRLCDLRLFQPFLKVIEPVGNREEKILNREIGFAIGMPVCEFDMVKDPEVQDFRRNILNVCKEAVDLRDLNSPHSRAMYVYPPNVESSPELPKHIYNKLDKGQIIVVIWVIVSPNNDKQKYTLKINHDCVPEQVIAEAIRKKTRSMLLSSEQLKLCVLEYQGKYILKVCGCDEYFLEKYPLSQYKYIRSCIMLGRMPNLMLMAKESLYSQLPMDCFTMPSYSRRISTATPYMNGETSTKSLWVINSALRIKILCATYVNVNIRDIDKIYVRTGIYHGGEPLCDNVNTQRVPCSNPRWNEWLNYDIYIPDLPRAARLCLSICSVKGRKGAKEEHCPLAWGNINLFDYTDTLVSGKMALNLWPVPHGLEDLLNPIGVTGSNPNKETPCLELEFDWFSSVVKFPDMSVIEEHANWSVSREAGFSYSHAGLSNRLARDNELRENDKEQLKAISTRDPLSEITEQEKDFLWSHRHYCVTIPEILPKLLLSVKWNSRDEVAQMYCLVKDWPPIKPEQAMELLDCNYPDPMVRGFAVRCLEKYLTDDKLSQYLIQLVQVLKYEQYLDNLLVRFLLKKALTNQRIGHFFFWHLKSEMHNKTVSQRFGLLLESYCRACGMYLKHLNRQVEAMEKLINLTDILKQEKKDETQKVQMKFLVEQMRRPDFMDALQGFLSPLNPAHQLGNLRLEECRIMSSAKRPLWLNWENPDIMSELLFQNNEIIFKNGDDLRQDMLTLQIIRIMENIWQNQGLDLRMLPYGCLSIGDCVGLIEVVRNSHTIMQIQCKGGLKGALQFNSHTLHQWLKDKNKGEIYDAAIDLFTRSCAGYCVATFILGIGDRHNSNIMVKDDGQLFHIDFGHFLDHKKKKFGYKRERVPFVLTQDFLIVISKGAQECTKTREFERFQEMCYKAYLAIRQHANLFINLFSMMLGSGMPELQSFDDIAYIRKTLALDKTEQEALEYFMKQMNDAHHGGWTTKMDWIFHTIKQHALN

[14] = biological target: T2, Phosphatidylinositol 4,5-bisphosphate 3-kinase catalytic subunit alpha isoform; assay: Inhibition of human PI3Kalpha-mediated Akt phosphorylation at Ser473 residue expressed in human H460 cells after 0.5 to 2 hrs by Western blot analysis; format: cell-based
[15] = C0 in CB17/ICR-Prkdc SCID mouse at 6 mg/kg, iv; format: ADME, organism-based; parameters: dose 6 mg/kg, route intravenous; settings: in vivo
[16] = Drug metabolism in human liver microsomes; format: ADME, Microsome; settings: read-out: Drug metabolism
[17] = Drug uptake in tumor of SCID mouse xenografted with PTEN-deficient human PC3 cells at 300 mg/kg, po BID measured after 1 hr; format: ADME, organism-based, Neoplasm, PC-3; parameters: dose 300 mg/kg, route oral; settings: read-out: Drug uptake
[18] = Cmax in CB17/ICR-Prkdc SCID mouse at 10 mg/kg, po; format: ADME, organism-based; parameters: dose 10 mg/kg, route oral; settings: in vivo
[19] = Terminal half life in CB17/ICR-Prkdc SCID mouse at 10 mg/kg, po; format: ADME, organism-based; parameters: dose 10 mg/kg, route oral; settings: in vivo, read-out: beta t1/2 (converted)
[20] = biological target: Phosphatidylinositol 4,5-bisphosphate 3-kinase catalytic subunit beta isoform (Homo sapiens, UniProt P42338); assay: Inhibition of human PI3Kbeta-mediated Akt phosphorylation at Ser473 residue expressed in mouse MEF-3T3 cells after 0.5 to 2 hrs by Western blot analysis; format: cell-based
Chain of Phosphatidylinositol 4,5-bisphosphate 3-kinase catalytic subunit beta isoform (P42338 whole entry, canonical isoform): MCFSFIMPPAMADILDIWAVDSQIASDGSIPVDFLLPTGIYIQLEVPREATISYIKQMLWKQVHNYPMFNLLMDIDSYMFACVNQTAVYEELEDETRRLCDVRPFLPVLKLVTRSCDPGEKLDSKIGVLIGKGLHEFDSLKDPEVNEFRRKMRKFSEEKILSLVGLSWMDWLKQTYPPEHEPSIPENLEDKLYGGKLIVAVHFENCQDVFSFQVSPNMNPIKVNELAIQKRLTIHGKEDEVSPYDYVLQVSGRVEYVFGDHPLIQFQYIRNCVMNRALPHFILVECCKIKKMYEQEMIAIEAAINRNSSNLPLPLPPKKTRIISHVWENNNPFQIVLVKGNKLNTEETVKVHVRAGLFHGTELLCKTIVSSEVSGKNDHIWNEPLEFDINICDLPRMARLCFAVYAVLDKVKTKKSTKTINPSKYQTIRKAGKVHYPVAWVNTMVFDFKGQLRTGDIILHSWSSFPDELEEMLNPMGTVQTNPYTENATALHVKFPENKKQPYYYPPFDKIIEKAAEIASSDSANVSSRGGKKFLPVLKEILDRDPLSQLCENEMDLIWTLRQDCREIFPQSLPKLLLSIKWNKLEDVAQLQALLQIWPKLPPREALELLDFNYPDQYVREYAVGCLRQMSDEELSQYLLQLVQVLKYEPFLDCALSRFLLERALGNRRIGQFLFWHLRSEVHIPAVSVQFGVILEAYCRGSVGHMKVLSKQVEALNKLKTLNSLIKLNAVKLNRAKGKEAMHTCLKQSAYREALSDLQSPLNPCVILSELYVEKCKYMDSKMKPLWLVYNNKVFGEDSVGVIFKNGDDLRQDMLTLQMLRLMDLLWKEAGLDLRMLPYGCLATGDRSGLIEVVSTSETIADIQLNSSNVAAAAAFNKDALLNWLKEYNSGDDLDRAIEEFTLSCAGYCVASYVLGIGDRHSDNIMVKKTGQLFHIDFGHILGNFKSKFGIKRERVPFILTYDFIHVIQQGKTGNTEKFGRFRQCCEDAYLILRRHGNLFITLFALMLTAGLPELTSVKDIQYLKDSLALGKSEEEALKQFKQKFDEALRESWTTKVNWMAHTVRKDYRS

[21] = biological target: T3, Phosphatidylinositol 4,5-bisphosphate 3-kinase catalytic subunit delta isoform (Homo sapiens, UniProt O00329); assay: Inhibition of human PI3Kdelta-mediated Akt phosphorylation at Ser473 residue expressed in mouse MEF-3T3 cells after 0.5 to 2 hrs by Western blot analysis; format: cell-based
T3 sequence (O00329 whole entry): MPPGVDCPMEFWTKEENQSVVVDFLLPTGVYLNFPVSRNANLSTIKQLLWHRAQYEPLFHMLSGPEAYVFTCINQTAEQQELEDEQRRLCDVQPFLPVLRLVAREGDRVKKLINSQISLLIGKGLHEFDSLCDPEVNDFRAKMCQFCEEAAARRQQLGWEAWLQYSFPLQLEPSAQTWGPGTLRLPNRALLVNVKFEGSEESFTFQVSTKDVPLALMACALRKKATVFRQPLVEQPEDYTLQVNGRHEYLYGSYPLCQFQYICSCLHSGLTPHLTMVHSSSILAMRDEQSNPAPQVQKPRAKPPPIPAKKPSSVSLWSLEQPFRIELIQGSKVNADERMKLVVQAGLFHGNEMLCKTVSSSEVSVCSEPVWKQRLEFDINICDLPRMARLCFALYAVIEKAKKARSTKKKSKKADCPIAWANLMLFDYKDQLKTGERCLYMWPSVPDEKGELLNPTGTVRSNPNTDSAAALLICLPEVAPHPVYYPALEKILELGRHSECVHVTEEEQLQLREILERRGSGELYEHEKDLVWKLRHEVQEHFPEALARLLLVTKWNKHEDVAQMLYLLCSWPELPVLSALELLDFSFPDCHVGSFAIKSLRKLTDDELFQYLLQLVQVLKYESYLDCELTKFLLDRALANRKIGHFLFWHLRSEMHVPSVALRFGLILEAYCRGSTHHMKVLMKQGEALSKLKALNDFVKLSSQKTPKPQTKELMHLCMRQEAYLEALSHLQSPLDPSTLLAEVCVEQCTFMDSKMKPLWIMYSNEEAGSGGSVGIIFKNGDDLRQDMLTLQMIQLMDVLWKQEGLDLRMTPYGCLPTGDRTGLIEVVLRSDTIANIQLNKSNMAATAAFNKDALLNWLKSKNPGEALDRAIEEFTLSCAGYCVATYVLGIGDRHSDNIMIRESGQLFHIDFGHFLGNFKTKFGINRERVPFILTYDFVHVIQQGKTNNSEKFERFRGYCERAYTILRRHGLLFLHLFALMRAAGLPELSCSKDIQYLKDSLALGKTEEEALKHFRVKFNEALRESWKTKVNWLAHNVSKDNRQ

Mus musculus [22] = assay: Inhibition of Akt phosphorylation at T308 residue in tumor of po dosed SCID mouse bearing human PTEN-deficient PC3 cells administered BID; format: functional, organism-based; settings: PC-3
Mus musculus [23] = assay: Inhibition of Akt phosphorylation at T308 residue in plasma of po dosed SCID mouse bearing human PTEN-deficient PC3 cells administered BID; format: functional, organism-based; settings: PC-3, Plasma
[24] = Thermodynamic solubility of the compound in phosphate buffer at pH 7.4 after 16 hrs by HPLC analysis; format: physicochemical; settings: read-out: Therm_solubility
[25] = Plasma concentration in SCID mouse xenografted with PTEN-deficient human PC3 cells at 300 mg/kg, po BID measured after 24 hrs; format: ADME, organism-based, PC-3; parameters: dose 300 mg/kg, route oral
[26] = Apparent permeability of the compound across human Caco2 cells; format: ADME, cell-based; settings: Caco-2
Plasma = assay: Plasma concentration in SCID mouse xenografted with PTEN-deficient human PC3 cells at 300 mg/kg, po BID measured after day 1; format: ADME, organism-based, PC-3; parameters: dose 300 mg/kg, route oral; settings: in vivo

Cn1c(Cc2nc(N3CCOCC3)cc(=O)[nH]2)nc2ccccc21
Tlast (Mus musculus [1]): 24 h | concentration at 24 h [2]: 0.7 µM | Activity (Mus musculus [3]): Non-toxic | bioavailability [4]: 26% | AUC(0-t) at 24 h [5]: 1950 ng·h/mL | concentration at 6 h [6]: 11 µM | IC50 [7]: > 10000 nM | AUC(0-t) [8]: 1950 ng·h/mL | concentration at 3 h [9]: 8 µM | Tmax [10]: 0.5 h | T/C (PC-3): 45% | IC50 [11]: > 10000 nM | AUC(0-t) at 24 h [12]: 846 ng·h/mL | IC50 [13]: > 10000 nM | IC50 [14]: > 10000 nM | C0 [15]: 4870 ng/mL | metabolised [16]: 27% | concentration at 1 h [17]: 16 µM | Cmax [18]: 641 ng/mL | half-life [19]: 3.9 h | IC50 [20]: 86 nM | IC50 [21]: 2650 nM | EC50 (Mus musculus [22]): 2100 nM | EC50 (Mus musculus [23]): 1600 nM | solubility thermodynamic at 16 h [24]: 65 µM (≈ 21.1 µg/mL) | concentration at 24 h [25]: 1.7 µM | Papp [26]: 3 ×10⁻⁶ cm/s | Drug uptake (Plasma): Active

— ChEMBL document CHEMBL2062364, “Discovery and optimization of new benzimidazole- and benzoxazole-pyrimidone selective PI3Kβ inhibitors for the treatment of phosphatase and TENsin homologue (PTEN)-deficient cancers” (J Med Chem, 2012)
